Several values for one entry are separate records, joined by “and”; a condition that tells them apart may be missing. Identical values can stand only once. Like-named read-outs stand apart in the source and are kept apart here.
Key:
PPM1D1–420 [1] = molecular target: T1, PPM1D1–420 (Homo sapiens, UniProt O15297); test: Surface plasmon resonance (SPR); type: binding; settings: for Kd: read-out: KD
T1 construct: PPM1D1–420 was PCR-amplified from the synthesized gene with BsaI sites; His(6)-SUMO (N, cleaved yes); made in house; host or cells: E. coli BL21 (DE3)
T1 sequence (O15297 1-420): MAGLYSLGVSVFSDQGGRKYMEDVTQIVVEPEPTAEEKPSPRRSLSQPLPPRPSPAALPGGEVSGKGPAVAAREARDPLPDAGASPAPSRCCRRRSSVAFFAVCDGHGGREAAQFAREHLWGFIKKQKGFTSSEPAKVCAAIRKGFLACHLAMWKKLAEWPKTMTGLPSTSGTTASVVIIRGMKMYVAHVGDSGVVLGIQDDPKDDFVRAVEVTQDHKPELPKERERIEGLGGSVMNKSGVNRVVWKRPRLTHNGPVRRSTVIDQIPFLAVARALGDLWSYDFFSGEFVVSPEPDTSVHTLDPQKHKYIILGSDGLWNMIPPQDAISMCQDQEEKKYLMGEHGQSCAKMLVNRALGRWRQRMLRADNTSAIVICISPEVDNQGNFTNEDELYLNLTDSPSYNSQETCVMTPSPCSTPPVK
Method: (§1) SPR was carried out on the Biacore S200 (GE Healthcare) using Series S sensor chip NTA (GE BR-1005-32). The preparation of the chip surface was conducted according to the manufacturer’s indications. The running buffer contained 50 mM Tris (pH 7.5), 50 mM NaCl, 1 mM MgCl2, 0.5 mM TCEP, 0.005% (v/v) P20 surfactant, and 2% DMSO. PPM1D1–420 and PPM1D∆Flap were run under single-cycle mode due to the slow-off-rate kinetics. The two proteins were immobilized on the chip surface in flow cells 2 and 3 with a signal of ~1500–2000 RU at a rate of 5 μL/min while flow cell 1 was left blank as a reference. The running buffer was injected three times followed by the GSK2830371 analyte in solution. Injections were carried out at a flow rate of 50 μL/min with the analyte in a concentration series of 5-point, 3-fold ending at 400 nM top dose. The association and dissociation phases were monitored for 90 s and 600 s, respectively. Collected data were evaluated using the Biacore S200 Evaluation Software under 1:1 binding mode. PPM1D∆Hinge was run under multi-cycle mode due to its fast-on/fast-off kinetics. The protein was immobilized to give a signal of ~ 3000 RU. GSK2830371 analyte in solution was injected at a flow rate of 90 μL/min in a 10-pt, 2-fold concentration series ending at 15 μM top dose. The association and dissociation phases were monitored for 45 s and 150 s, respectively. Since GSK2830371 had issues with solubility/aggregation at high concentrations that caused artifacts in sensorgrams, only steady-state analysis was performed to extract Kd.

PPM1DΔflap = molecular target: T2, PPM1DΔflap (Homo sapiens, UniProt O15297, DEL219-231/DEL235-284/E287S/S285N); test: Surface plasmon resonance (SPR); type: binding
T2 construct: PPM1D1–218-GGSNGS-288–420 (PPM1D∆flap); His(6)-SUMO (N, cleaved yes); made in house; host or cells: E. coli BL21 (DE3)
T2 sequence (O15297 with tags, fused parts or gaps DEL219-231/DEL235-284/S285N/E287S): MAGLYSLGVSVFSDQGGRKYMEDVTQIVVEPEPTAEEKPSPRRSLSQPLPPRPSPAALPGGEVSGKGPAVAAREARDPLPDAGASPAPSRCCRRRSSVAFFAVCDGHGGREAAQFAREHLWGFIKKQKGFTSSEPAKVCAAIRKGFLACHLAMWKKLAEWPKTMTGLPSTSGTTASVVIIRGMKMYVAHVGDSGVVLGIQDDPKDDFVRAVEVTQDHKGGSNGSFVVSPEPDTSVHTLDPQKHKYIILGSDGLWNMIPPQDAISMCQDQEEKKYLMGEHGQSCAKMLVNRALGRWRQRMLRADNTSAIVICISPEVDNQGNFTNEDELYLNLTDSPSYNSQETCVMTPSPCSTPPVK
Method: as §1

PPM1DΔhinge = molecular target: T3, PPM1DΔhinge (Homo sapiens, UniProt O15297, DEL155-163/G166S/M164G/T165G); test: Surface plasmon resonance (SPR); type: binding
T3 construct: PPM1D1–154-GGS-167–420 (PPM1D∆hinge); His(6)-SUMO (N, cleaved yes); made in house; host or cells: E. coli BL21 (DE3)
T3 sequence (O15297 with tags, fused parts or gaps DEL155-163/M164G/T165G/G166S): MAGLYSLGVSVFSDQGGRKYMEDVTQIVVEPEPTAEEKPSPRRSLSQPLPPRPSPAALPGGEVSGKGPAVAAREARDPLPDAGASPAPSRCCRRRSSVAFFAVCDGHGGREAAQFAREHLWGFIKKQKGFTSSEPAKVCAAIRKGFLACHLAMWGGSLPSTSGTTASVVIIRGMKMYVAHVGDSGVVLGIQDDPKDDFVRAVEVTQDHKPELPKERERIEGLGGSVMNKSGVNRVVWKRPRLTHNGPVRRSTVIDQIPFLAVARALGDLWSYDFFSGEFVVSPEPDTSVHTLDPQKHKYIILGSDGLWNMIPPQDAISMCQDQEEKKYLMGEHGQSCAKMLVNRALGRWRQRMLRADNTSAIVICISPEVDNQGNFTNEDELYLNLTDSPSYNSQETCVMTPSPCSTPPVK
Method: as §1

PPM1D1–420 [2] = molecular target: T1, PPM1D1–420; test: Sedimentation velocity analytical ultracentrifugation (SV-AUC); settings: PPM1D1–420 15 µM with 3x compound, 2% DMSO
Method: AUC experiments were done using an Optima ultracentrifuge (Beckman Instruments). Proteins were dialyzed at 4 °C prior to each experiment in 20 mM HEPES (pH 7.4), 100 mM NaCl, 5 mM MgCl2, 0.1 mM TCEP. Sedimentation velocity (SV-AUC) experiments were conducted using an An50 Ti rotor at 50,000 rpm and 20 °C following temperature equilibration for 1 h prior to the start of the experiment. […] We, therefore, present these SV-AUC data as relative sedimenting populations with their experimentally observed S values. Absorbance data were collected at 280 nm. SedFIT was used to model the sedimentation coefficient distributions [c(s) analysis] for each experiment[38],[39]. Data were then refined using the c(s) with a conformational change model to better estimate the relative populations observed for PPM1D1–420. SedNTerp was used to calculate protein parameters. Images were generated using GUSSI[41].

Cc1ncc(Cl)cc1NCc1ccc(C(=O)N[C@@H](CC2CCCC2)C(=O)NC2CC2)s1 [GSK2830371]
koff (PPM1D1–420 [1]; Fig 3D, Average of 3 trials): 0.00024 s⁻¹ | kon (PPM1D1–420 [1]; Fig 3D, Average of 3 trials): 433000 M⁻¹ s⁻¹ | Kd (PPM1D1–420 [1]; Fig 3D, Average of 3 trials): 1.2 nM | koff (PPM1D1–420 [1]; Fig 3D, individual trials): 0.00011 s⁻¹ and 0.00028 s⁻¹ and 0.00033 s⁻¹ | kon (PPM1D1–420 [1]; Fig 3D, individual trials): 595000 M⁻¹ s⁻¹ and 343000 M⁻¹ s⁻¹ and 362000 M⁻¹ s⁻¹ | Kd (PPM1D1–420 [1]; Fig 3D, individual trials): 0.8 nM and 1 nM | kon (PPM1D1–420 [1]; read-out: kon (SPR), PPM1D1–420, Fig. 3D): 430000 ± 100000 M⁻¹ s⁻¹ | Kd (PPM1DΔflap; PPM1DΔflap, Fig. 6A): 1 nM | koff (PPM1DΔflap; read-out: koff (SPR)): 0.0045 s⁻¹ | kon (PPM1DΔflap; read-out: kon (SPR)): 5e+06 M⁻¹ s⁻¹ | decrease in binding affinity by SPR upon hinge deletion (PPM1DΔhinge; PPM1DΔhinge versus PPM1D1–420): ~ 1000 fold | Kd (PPM1DΔhinge; PPM1DΔhinge, multi-cycle, steady-state analysis): 1000 nM | sedimentation peak (SV-AUC) in presence of compound (PPM1D1–420 [2]): 2.69 S

Source: paper PMC9246869, “Allosteric inhibition of PPM1D serine/threonine phosphatase via an altered conformational state” (Nature Communications, 2022)
